According to article PMC2365101, “Anti-Inflammatory Activity of (Polyphenolic)-Sulfonates and Their Sodium Salts in Rodents” (Metal-Based Drugs, 1998):

Legend:
[1] = tested on: RPMI 1788 leukocytes adhesion to L929 fibroblasts; test: Adhesion of human leukocytes RPMI-1788 to confluent L929 fibroblasts; format: cell-based; details: for Adhesion, Percent of Control: N=6
[2] = tested on: J774 A1 mouse macrophages adhesion to L929 fibroblasts; test: Adhesion of J-774 A1 mouse macrophages to confluent L929 fibroblasts; format: cell-based; details: N=6
[3] = tested on: CF1 male mice, LPS Salmonella abortus equi induced death; test: Protection against septic shock (LPS induced endotoxic shock); format: in vivo; details: for Percent Survival at 52 hr: LPS 10 mg/kg, CF1 male mice, N=6
Description: Few reports in the literature indicate interaction at these receptor sites other than by peptides or antibodies. […] Blocking these receptors is desirable because the entire inflammation cascade of events is triggered by the early release of TNFa and IL-1. […] Radioisotopes were obtained from New England Nuclear [Dupont, Boston, MA] and substrates and co- factors were obtained from Sigma Chemical Co. [St. Louis, MO]. […] Cell lines were obtained from American Type Culture Collection [Rockville, MD]. In Vivo Tests Anti-inflammatory screen in mice: Male CF male mice weighing 28-32g obtained from Jackson Lab. [Bar Harbor, […]] were used to screen agents at 8 or 16 mg/kg intraperitoneal [I.P.] x 2 administered 3 hr and 30 min prior to administering the irritant, according to Winter's protocol. Evaluation of the induced edema was made by injecting 2% carrageenan in 0.9% saline into the plantar region of the foot. The opposite foot injected with 0.9% isotonic saline was used as a base line. […] Salmonella abortus equi [Lot # 69F4003] […] Drugs from 2 to 16 mg/kg, I.P. were administered 2 hr prior and 2 hr post-injection of the LPS and then subsequently for every 24 hr for the length ofthe animals' lives. Deaths were recorded every 12 hr and continued for 96 hr. […] In vitro TNFa andIL-1 Measurements and Cellular Regulation IC-21 mouse macrophages were maintained in RPMI-1640 + 10% FCS + P/S. After the cells had grown to confluency, E. coli LPS at 10 Ixg/ml was added to the medium. Agents were incubated at 12.5 to 100 µM final concentration for 18 hr. The medium (100 btl) was collected for TNFCt determinations. Interleukin-1 [IL-1] release was determined using P388D1 cells which were maintained in RPMI-1640 + 10% FCS + P/S. The L929 bioassay was used to quantitate the TNF and the IL-1 levels. The L929 mouse fibroblasts were grown in DMEM + 10% FCS + P/S to confluency in 96 well plates and incubated with 100 tl ofmedium from […] or P388D cells after 18 hr. The cells were stained with 0.2% crystal violet in 20% MeOH and read at 580 nm using a Molecular Devices scanner (SOFT-max program). High Affinity Binding to Receptors on L929-106 Cells Two laCi of 125I-TNFct (human recombinant, 30 mCi/tg New England Nuclear) or 125I-IL-1 (70-120[.t Ci/lxg,New England Nuclear) was added to confluency L929 cells for 90 min or 5 hr, respectively with 25, 50 and 100 tM of the test compounds 12]. The cells were washed repeatedly with isotonic saline, pH.7.2 and aliquots counted. Prostaglandin cylcooxygenase activity Mouse J774AI macrophages maintained in Dulbecco's modified Eagle's medium + 15% FCS + P/S. Cells (5 x 106) were incubated with agents (5 to 100 ].tM final concentration) and 3H-arachidonic acid (100 Ci/mol) for 60 min at 37C in a CO2 incubator. The reaction was terminated with 2N HCI, the mixture extracted 2 X with ether, and the organic layer evaporated.

[4] = target: J774-A1 macrophage elastase; test: Elastase activity in J774-A1 macrophages; format: biochemical, mouse; details: 120 min
[5] = tested on: IL-8 high affinity receptor on chinese hamster ovarian carcinoma K-1 cells; test: 125I-IL-8 high affinity binding to chinese hamster ovarian carcinoma K-1 cells; details: for 125I-IL-8 binding, Percent of Control: N=6
[6] = target: T1, IL-2 high affinity receptor on HUT78 T lymphoma cell membrane (Homo sapiens, UniProt P01589+P14784); test: 125I-IL-2 high affinity binding to HuT78 T lymphoma cells; details: for 125I-IL-2 binding, Percent of Control: N=6
T1 construct: host or cells: HuT78 T lymphoma cells
T1 sequence (P01589 22-272): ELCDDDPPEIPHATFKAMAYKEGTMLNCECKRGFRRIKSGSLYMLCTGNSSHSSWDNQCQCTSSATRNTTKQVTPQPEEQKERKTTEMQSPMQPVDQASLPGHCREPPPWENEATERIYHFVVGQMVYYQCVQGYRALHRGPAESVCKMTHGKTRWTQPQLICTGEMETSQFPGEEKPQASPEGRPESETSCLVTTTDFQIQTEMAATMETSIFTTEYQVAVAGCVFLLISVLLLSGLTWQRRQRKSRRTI
T1 sequence (P14784 27-551): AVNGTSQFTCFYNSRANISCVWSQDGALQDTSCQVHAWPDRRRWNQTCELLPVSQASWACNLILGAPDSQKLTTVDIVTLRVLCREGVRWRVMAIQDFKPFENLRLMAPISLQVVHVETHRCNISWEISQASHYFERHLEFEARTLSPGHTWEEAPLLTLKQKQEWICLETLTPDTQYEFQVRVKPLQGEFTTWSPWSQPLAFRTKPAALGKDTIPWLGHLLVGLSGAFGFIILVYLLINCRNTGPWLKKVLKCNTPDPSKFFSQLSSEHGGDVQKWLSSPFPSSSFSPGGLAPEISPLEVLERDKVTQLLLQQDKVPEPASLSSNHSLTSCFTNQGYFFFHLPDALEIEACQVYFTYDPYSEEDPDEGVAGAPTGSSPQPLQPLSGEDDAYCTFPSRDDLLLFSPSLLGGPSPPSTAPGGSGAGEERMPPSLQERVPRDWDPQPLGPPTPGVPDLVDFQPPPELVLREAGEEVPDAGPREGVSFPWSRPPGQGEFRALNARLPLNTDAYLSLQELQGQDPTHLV

With `COc1c2cc(S(=O)(=O)[O-])cc1Cc1cc(S(=O)(=O)[O-])cc(c1OC)Cc1cc(S(=O)(=O)[O-])cc(c1OC)Cc1cc(S(=O)(=O)[O-])cc(c1OC)Cc1cc(S(=O)(=O)[O-])cc(c1OC)Cc1cc(S(=O)(=O)[O-])cc(c1OC)C2.[Na+].[Na+].[Na+].[Na+].[Na+].[Na+]` [Compound 6] the “Adhesion, Percent of Control” value ([1]; 5 μM, 60 min) was 46 + 4% of Control, the “Adhesion, Percent of Control” value ([1]; 5 μM, 90 min) was 62 + 5% of Control and the “Adhesion, Percent of Control” value ([1]; 12.5 μM, 2 Hours) was 125 + 5% of Control. The “Adhesion, Percent of Control” value ([1]; 12.5 μM, 5 Hours) was 92 + 4% of Control, the “Adhesion, Percent of Control” value ([1]; 12.5 μM, 60 min) was 49 + 6% of Control and the “Adhesion, Percent of Control” value ([1]; 12.5 μM, 90 min) was 55 + 6% of Control. The “Adhesion, Percent of Control” value ([1]; 25 μM, 2 Hours) was 100 + 6% of Control, the “Adhesion, Percent of Control” value ([1]; 25 μM, 5 Hours) was 95 + 5% of Control and the “Adhesion, Percent of Control” value ([1]; 25 μM, 60 min) was 30 + 3% of Control. For the same compound, the “Adhesion, Percent of Control” value ([1]; 25 μM, 90 min) was 71 + 5% of Control, the “Adhesion, Percent of Control” value ([1]; 50 μM, 2 Hours) was 108 + 6% of Control and the “Adhesion, Percent of Control” value ([1]; 50 μM, 5 Hours) was 88+ 7% of Control. The “Adhesion, Percent of Control” value ([1]; 50 μM, 60 min) was 41 + 5% of Control, the “reducing the adhesion of human leukocytes” value ([1]; 5 to 50 μM, at 2 and 5 hr) was “not effective” and the “reducing significantly the adhesion of human leukocytes” value ([1]; 5 to 50 μM, at 60 and 90 min) was “effective”. For the same compound, the “Adhesion, Percent of Control” value ([2]; 5 μM, 2 Hours) was 123 + 6% of Control, the “Adhesion, Percent of Control” value ([2]; 5 μM, 5 Hours) was 88 + 5% of Control and the “Adhesion, Percent of Control” value ([2]; 5 μM, 90 min) was 137 + 6% of Control. The “Adhesion, Percent of Control” value ([2]; 12.5 μM, 2 Hours) was 77 + 6% of Control, the “Adhesion, Percent of Control” value ([2]; 12.5 μM, 5 Hours) was 109 + 6% of Control and the “Adhesion, Percent of Control” value ([2]; 12.5 μM, 90 min) was 133 + 5% of Control. The “Adhesion, Percent of Control” value ([2]; 25 μM, 2 Hours) was 118 + 7% of Control, the “Adhesion, Percent of Control” value ([2]; 25 μM, 5 Hours) was 131 + 6% of Control and the “Adhesion, Percent of Control” value ([2]; 25 μM, 90 min) was 128 + 7% of Control. The “Adhesion, Percent of Control” value ([2]; 50 μM, 2 Hours) was 122 + 6% of Control, the “Adhesion, Percent of Control” value ([2]; 50 μM, 5 Hours) was 119 + 5% of Control and the “Adhesion, Percent of Control” value ([2]; 50 μM, 90 min) was 103 + 7% of Control. For the same compound, the “Percent Survival at 52 hr” value ([3]; 8 mg/Kg I.P.) was 50%, the “Percent Survival at 52 hr” value ([3]; 16 mg/Kg I.P.) was 100% and the “protection from LPS induced death” value ([3]; 16 mg/kg) was 100%. The “IC50 Elastase J774-A1” value [4] was “Increased”, the “125I-IL-8 binding, Percent of Control” value ([5]; 50 μM, 5 Hours) was 54 + 5% of Control and the “125I-IL-8 binding, Percent of Control” value ([5]; 50 μM, 24 Hours) was 65 + 7% of Control. For the same compound, the “125I-IL-8 binding, Percent of Control” value ([5]; 100 μM, 24 Hours) was 55 + 4% of Control, the “reduction of IL-8 high affinity binding” value ([5]; at 5 hr and 24 hr) was about 45% and the “125I-IL-2 binding, Percent of Control” value ([6]; 5 μM, 2 Hours) was 142 + 6% of Control. For the same compound, the “125I-IL-2 binding, Percent of Control” value ([6]; 5 μM, 5 Hours) was 100 + 6% of Control, the “125I-IL-2 binding, Percent of Control” value ([6]; 12.5 μM, 2 Hours) was 115 + 5% of Control and the “125I-IL-2 binding, Percent of Control” value ([6]; 12.5 μM, 5 Hours) was 92 + 6% of Control. For the same compound, the “125I-IL-2 binding, Percent of Control” value ([6]; 25 μM, 2 Hours) was 85 + 5% of Control, the “125I-IL-2 binding, Percent of Control” value ([6]; 25 μM, 5 Hours) was 78 + 5% of Control and the “125I-IL-2 binding, Percent of Control” value ([6]; 50 μM, 2 Hours) was 81 + 4% of Control. For the same compound, the “125I-IL-2 binding, Percent of Control” value ([6]; 50 μM, 5 Hours) was 55 + 4% of Control and the “reduction of IL-2 high affinity binding” value ([6]; 50 μM, 5 hr) was 45%.
